# Experimental data as given in patent publication US9776997B2, “3-aryl-substituted imidazo[1,2-A]pyridines and their use” (Bayer Pharma Aktiengesellschaft, priority 2013, dated 2017).
# Biological target: T1, recombinant guanylate cyclase reporter cell line (Rattus norvegicus, UniProt P19686+P20595)
# T1 construct: expressed in transfected cells; host or cells: recombinant reporter cell line
# T1 sequence (P19686 1-690): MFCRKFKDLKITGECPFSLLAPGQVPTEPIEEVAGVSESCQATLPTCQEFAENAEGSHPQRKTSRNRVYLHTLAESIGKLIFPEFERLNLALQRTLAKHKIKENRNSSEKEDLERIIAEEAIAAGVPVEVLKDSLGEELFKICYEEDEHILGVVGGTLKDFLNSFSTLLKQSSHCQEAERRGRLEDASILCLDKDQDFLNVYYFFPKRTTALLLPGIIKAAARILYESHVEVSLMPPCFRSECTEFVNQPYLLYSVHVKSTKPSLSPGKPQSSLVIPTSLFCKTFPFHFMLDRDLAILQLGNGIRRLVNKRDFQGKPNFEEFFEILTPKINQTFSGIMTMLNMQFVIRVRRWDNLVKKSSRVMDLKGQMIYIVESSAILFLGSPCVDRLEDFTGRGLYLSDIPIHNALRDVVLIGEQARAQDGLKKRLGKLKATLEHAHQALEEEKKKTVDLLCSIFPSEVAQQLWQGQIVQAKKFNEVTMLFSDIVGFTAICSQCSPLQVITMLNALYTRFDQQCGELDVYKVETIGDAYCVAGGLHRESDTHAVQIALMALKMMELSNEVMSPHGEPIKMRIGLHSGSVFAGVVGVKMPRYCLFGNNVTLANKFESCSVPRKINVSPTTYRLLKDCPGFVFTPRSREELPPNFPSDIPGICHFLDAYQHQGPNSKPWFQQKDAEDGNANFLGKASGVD
# T1 sequence (P20595 1-619): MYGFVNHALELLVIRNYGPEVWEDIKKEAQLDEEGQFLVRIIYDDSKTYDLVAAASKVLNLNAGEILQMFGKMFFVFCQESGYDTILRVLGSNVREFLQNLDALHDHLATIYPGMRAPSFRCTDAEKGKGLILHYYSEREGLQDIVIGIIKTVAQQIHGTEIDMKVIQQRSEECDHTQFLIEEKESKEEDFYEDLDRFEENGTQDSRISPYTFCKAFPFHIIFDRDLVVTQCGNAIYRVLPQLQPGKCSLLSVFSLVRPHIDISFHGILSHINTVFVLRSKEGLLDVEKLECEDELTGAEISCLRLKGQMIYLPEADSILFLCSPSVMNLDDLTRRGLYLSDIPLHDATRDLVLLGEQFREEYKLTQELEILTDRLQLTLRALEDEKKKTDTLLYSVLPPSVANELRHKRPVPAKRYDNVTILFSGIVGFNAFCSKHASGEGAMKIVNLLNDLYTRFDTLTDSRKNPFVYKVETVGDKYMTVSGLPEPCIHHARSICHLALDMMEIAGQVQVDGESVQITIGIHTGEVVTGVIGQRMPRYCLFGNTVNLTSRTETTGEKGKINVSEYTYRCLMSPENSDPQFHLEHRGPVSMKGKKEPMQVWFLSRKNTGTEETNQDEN
# Test: Effect on a recombinant guanylate cyclase reporter cell line
# Format: cell-based
# Details: MEC = minimum effective concentration; in some cases mean values for individual determinations
# Experimental: B-2. Effect on a Recombinant Guanylate Cyclase Reporter Cell Line
# The cellular effect of the inventive compounds is determined using a recombinant guanylate cyclase reporter cell line, as described in F. Wunder et al., Anal. Biochem. 339, 104-112 (2005).
# Representative MEC values (MEC=minimum effective concentration) for the inventive compounds are shown in the table below (in some cases as mean values for individual determinations): […]
row,SMILES,MEC [µM]
1,"COC(=O)Cn1cc(-c2c(C)nc3c(OCc4c(F)cccc4F)cc(C)cn23)cn1 [Example 103, methyl (4-{8-[(2,6-difluorobenzyl)oxy]-2,6-dimethylimidazo[1,2-a]pyridin-3-yl}-1H-pyrazol-1-yl)acetate]",0.03
2,COC(=O)C(C)n1cc(-c2c(C)nc3c(OCc4c(F)cccc4F)cc(C)cn23)cn1 (centres unmarked) [Example 104],0.3
3,COC(=O)CC(C)n1cc(-c2c(C)nc3c(OCc4c(F)cccc4F)cc(C)cn23)cn1 (centres unmarked) [Example 105],0.01
4,COC(=O)C1CC1n1cc(-c2c(C)nc3c(OCc4c(F)cccc4F)cc(C)cn23)cn1 (centres unmarked) [Example 106],0.3
5,"Cc1cc(OCc2c(F)cccc2F)c2nc(C)c(-c3cnn(CCC(=O)O)c3)n2c1 [Example 107, 3-(4-{8-[(2,6-Difluorobenzyl)oxy]-2,6-dimethylimidazo[1,2-a]pyridin-3-yl}-1H-pyrazol-1-yl)propanoic acid]",0.065
6,"Cc1cc(OCc2c(F)cccc2F)c2nc(C)c(-c3cnn(CC(=O)O)c3)n2c1 [Example 108, (4-{8-[(2,6-difluorobenzyl)oxy]-2,6-dimethylimidazo[1,2-a]pyridin-3-yl}-1H-pyrazol-1-yl)acetic acid]",0.3
7,Cc1cc(OCc2c(F)cccc2F)c2nc(C)c(-c3cnn(C(C)C(=O)O)c3)n2c1 (centres unmarked) [Example 109],0.3
8,Cc1cc(OCc2c(F)cccc2F)c2nc(C)c(-c3cnn(C4CC4C(=O)O)c3)n2c1 (centres unmarked) [Example 111],1.0
9,"Cc1cc(OCc2c(F)cccc2F)c2nc(C)c(-c3cnn(CC(=O)NC4CC4)c3)n2c1 [Example 113, N-Cyclopropyl-2-(4-{8-[(2,6-difluorobenzyl)oxy]-2,6-dimethylimidazo[1,2-a]pyridin-3-yl}-1H-pyrazol-1-yl)acetamide]",0.03
10,"Cc1cc(OCc2c(F)cccc2F)c2nc(C)c(-c3cnn(CCC(=O)NC4CC4)c3)n2c1 [Example 114, N-Cyclopropyl-3-(4-{8-[(2,6-difluorobenzyl)oxy]-2,6-dimethylimidazo[1,2-a]pyridin-3-yl}-1H-pyrazol-1-yl)propanamide]",0.3
11,"Cc1cc(OCc2c(F)cccc2F)c2nc(C)c(-c3cnn(CC(N)=O)c3)n2c1 [Example 115, 2-(4-{8-[(2,6-Difluorobenzyl)oxy]-2,6-dimethylimidazo[1,2-a]pyridin-3-yl}-1H-pyrazol-1-yl)acetamide]",0.1
12,"Cc1cc(OCc2c(F)cccc2F)c2nc(C)c(-c3cnn(CC(C)(C)O)c3)n2c1 [Example 116, 1-(4-{8-[(2,6-Difluorobenzyl)oxy]-2,6-dimethylimidazo[1,2-a]pyridin-3-yl}-1H-pyrazol-1-yl)-2-methylpropan-2-ol]",0.01
13,"Cc1cc(OCc2c(F)cccc2F)c2nc(C)c(-c3cnn(CC(C)(C)N)c3)n2c1.Cl [Example 117, 1-(4-{8-[(2,6-Difluorobenzyl)oxy]-2,6-dimethylimidazo[1,2-a]pyridin-3-yl}-1H-pyrazol-1-yl)-2-methylpropan-2-amine hydrochloride]",0.1
14,"Cc1cc(OCc2c(F)cccc2F)c2nc(C)c(-c3cnn(CCN4CCOCC4)c3)n2c1 [Example 118, 8-[(2,6-Difluorobenzyl)oxy]-2,6-dimethyl-3-{1-[2-(morpholin-4-yl)ethyl]-1H-pyrazol-4-yl}imidazo[1,2-a]pyridine]",0.03
15,Cc1nc2c(OCc3c(F)cccc3F)cccn2c1-c1cnn(CCN2CCOCC2)c1 [Example 119],0.1
16,Cc1cc(OCc2c(F)cccc2F)c2nc(C)c(-c3cccc(CN4CCN(C)CC4)c3)n2c1 [Example 120],0.3
17,Cc1nc2c(OCc3c(F)cccc3F)cccn2c1-c1cnn(-c2cccnc2)c1 [Example 121],1.0
18,Cc1nc2c(OCc3c(F)cccc3F)cccn2c1-c1cnn(-c2cncc(F)c2)c1 [Example 122],3.0
19,"Cc1nc2c(OCc3c(F)cccc3F)cccn2c1-c1cnn(-c2ccc(F)cc2)c1 [Example 123, 8-[(2,6-Difluorobenzyl)oxy]-3-[1-(4-fluorophenyl)-1H-pyrazol-4-yl]-2-methylimidazo[1,2-a]pyridine]",0.3
20,"Cc1nc2c(OCc3c(F)cccc3F)cccn2c1-c1nc(N)n[nH]1 [Example 124, 5-{8-[(2,6-Difluorobenzyl)oxy]-2-methylimidazo[1,2-a]pyridin-3-yl}-1H-1,2,4-triazol-3-amine]",3.0
21,"Cc1nc2c(OCc3c(F)cccc3F)cccn2c1-c1nc(N)n(CC(F)(F)F)n1 [Example 125, 3-{8-[(2,6-Difluorobenzyl)oxy]-2-methylimidazo[1,2-a]pyridin-3-yl}-1-(2,2,2-trifluoroethyl)-1H-1,2,4-triazol-5-amine]",3.0
22,"Cc1cc(OCc2c(F)cccc2F)c2nc(C)c(-c3n[nH]c(C(F)(F)F)n3)n2c1 [Example 126, 8-[(2,6-Difluorobenzyl)oxy]-2,6-dimethyl-3-[5-(trifluoromethyl)-1H-1,2,4-triazol-3-yl]imidazo[1,2-a]pyridine]",3.0
23,"Cc1cc(OCc2c(F)cccc2F)c2nc(C)c(-c3cn(CC(C)(C)N)nc3C)n2c1.O=CO [Example 127, 1-(4-{8-[(2,6-Difluorobenzyl)oxy]-2,6-dimethylimidazo[1,2-a]pyridin-3-yl}-3-methyl-1H-pyrazol-1-yl)-2-methylpropan-2-amine formate]",0.3
24,"Cc1cc(OCc2c(F)cccc2F)c2nc(C)c(-c3nc[nH]n3)n2c1 [Example 128, 8-[(2,6-Difluorobenzyl)oxy]-2,6-dimethyl-3-(1H-1,2,4-triazol-3-yl)imidazo[1,2-a]pyridine]",1.0
25,"Cc1cc(OCc2c(F)cccc2F)c2nc(C)c(-c3ncn(CC(C)(C)N)n3)n2c1 [Example 129, 1-(3-{8-[(2,6-Difluorobenzyl)oxy]-2,6-dimethylimidazo[1,2-a]pyridin-3-yl}-1H-1,2,4-triazol-1-yl)-2-methylpropan-2-amine]",1.0
26,"Cc1cc(OCc2c(F)cccc2F)c2nc(C)c(-c3nnc(CC(C)(C)N)o3)n2c1 [Example 130, 1-(5-{8-[(2,6-Difluorobenzyl)oxy]-2,6-dimethylimidazo[1,2-a]pyridin-3-yl}-1,3,4-oxadiazol-2-yl)-2-methylpropan-2-amine]",3.0
27,"Cc1cc(OCc2c(F)cccc2F)c2nc(C)c(-c3noc(CC(C)(C)N)n3)n2c1 [Example 131, 1-(3-{8-[(2,6-Difluorobenzyl)oxy]-2,6-dimethylimidazo[1,2-a]pyridin-3-yl}-1,2,4-oxadiazol-5-yl)-2-methylpropan-2-amine]",1.0
28,"Cc1cc(OCc2c(F)cccc2F)c2nc(C)c(-c3nc(CC(C)(C)N)no3)n2c1.O=CO [Example 132, 1-(5-{8-[(2,6-Difluorobenzyl)oxy]-2,6-dimethylimidazo[1,2-a]pyridin-3-yl}-1,2,4-oxadiazol-3-yl)-2-methylpropan-2-amine formate]",0.3
29,"Cc1cc(OCc2c(F)cccc2F)c2nc(C)c(-c3nnc(CC(C)(C)N)s3)n2c1.O=CO [Example 133, 1-(5-{8-[(2,6-Difluorobenzyl)oxy]-2,6-dimethylimidazo[1,2-a]pyridin-3-yl}-1,3,4-thiadiazol-2-yl)-2-methylpropan-2-amine formate]",0.3
